This note sets out measurements from PubChem BioAssay AID850 (SRMLSC, 2007).

Structures are written as SMILES. Active and inactive are the calls of the source. The rule behind the calls is not given here.

Test system in one experiment: not listed separately
Kind of experiment: concentration-response yeast growth inhibition under permissive conditions, counter-assay for yeast lifespan-shortening chemical project (AID 850).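 Note: growth read as optical density after one day of incubation.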 The following applies: Saccharomyces cerevisiae growth inhibition, permissive control; measured here: maximum growth inhibition; at 0.781 µM; stronger effect = higher value.
`O=C(COc1ccccc1)N1CCN=C1SCc1cccnc1`: the inhibition stood at 11.2%. Same read-out and setting: the figure for `Cc1cc([N+](=O)[O-])ccc1-c1ccc(C2Nc3ccccc3C(=O)N2O)o1` (stereo not drawn) is 3.97%.

The experiment is the same for the next values; noted with them: Saccharomyces cerevisiae growth inhibition, permissive control; measured here: maximum growth inhibition; at 1.563 µM; stronger effect = higher value.
Consider `CC(C)Sc1nc(N)nc(-c2cccs2)c1C#N`, for which the inhibition is 14.6%.

The experiment is the same for the next values; noted with them: Saccharomyces cerevisiae growth inhibition, permissive control; measured here: maximum growth inhibition; at 3.125 µM; stronger effect = higher value.
As for `CCSc1nc2ccccc2n1S(=O)(=O)c1ccccc1`, the inhibition came to 26.4%. Same read-out and setting: the figure for `CC(=O)N1N=C(c2ccc(Cl)cc2)OC1(C)C` is 41%; for `O=S(=O)(Nc1ccc(-c2csc(-c3ccccc3)n2)cc1)c1ccc(F)cc1` it is 34.3%; for `CCCOC(=O)c1ccc(Oc2cn[nH]c2-c2ccc(OCC)cc2O)cc1` it is 34.6%. Still for that read-out and setting: under `CS(=O)(=O)N1CCN(C(=O)c2ccccc2F)CC1` stands 34.8%.

The experiment is the same for the next values; noted with them: Saccharomyces cerevisiae growth inhibition, permissive control; measured here: maximum growth inhibition; at 12.5 µM; stronger effect = higher value.
Regarding `CCCn1c(C(C)NC(C)=O)nc2ccccc21` (stereo not drawn), the inhibition was determined as 9.66%. On the same count and under the same terms, the figure for `CCCCSc1nc(C)c(C(C)=O)cc1C#N` is 3.31%. Same read-out and setting: the figure for `COc1ccc(-n2c(Cc3cccn3C)nnc2SCC(=O)N2CCCC2)cc1` is 37.7%. On the same count and under the same terms, under `COc1ccc2nc(NC(=S)N(C)C)sc2c1` stands 35%; under `N/C(=N\OC(=O)c1ccc(Cl)cc1Cl)c1ccccc1`, 32.3%; under `Cc1ccc2nc(-c3ccc(NS(=O)(=O)c4ccc(F)c(F)c4)cc3)sc2c1`, 39.1%. On to `Cc1onc(-c2ccccc2)c1C(=O)NC(=S)NNC(=O)c1ccc(O)cc1O`, for which the inhibition was 44.7%. On the same count and under the same terms, the figure for `Cn1c2ccccc2c(=O)n2c(=O)c3ccccc3cc12` is 30.2%.

Staying with this experiment, now noted: Saccharomyces cerevisiae growth inhibition, permissive control; measured here: maximum growth inhibition; at 25 µM; stronger effect = higher value.
With `Cc1ccc(/C=C/C(=O)c2ccccc(=O)c2O)c(C)c1`, the inhibition is 101%. As for `CCN1/C(=C/C=C/C=C/c2sc3ccccc3[n+]2CC)Sc2ccccc21`, the inhibition stood at 87.5%.

`COc1ccc(N/N=C(\C#N)C(N)=O)cc1`: the inhibition came to 36.4%. The same measure, in the same setting: the figure for `Nc1cccc2nc3ccccc3cc12` is 38.6%. Still for that read-out and setting: the figure for `Cc1c2cc(O)c(=O)cc-2oc2cc(O)c(O)cc12` is 39.9%; for `O=c1c2c([N+](=O)[O-])cc([N+](=O)[O-])cc2sn1-c1ccc(Br)cc1` it is 36.1%; for `O=C1c2ccccc2C(=O)C1c1ccc2ccccc2n1` it is 30.6%. Same read-out and setting: the figure for `N#CCSc1nc2ccccc2c2nc3ccccc3n12` is 39.2%; for `O=C(Cc1cccs1)NNC(=S)NC(=O)c1ccccc1` it is 41%; for `O=C(c1c[nH]c(C(=O)C(Cl)(Cl)Cl)c1)c1ccccc1Cl` it is 46.3%. On to `CCc1cc2c(cc(C(=O)O)n2C)s1`, for which the inhibition worked out at 48.3%. On to `Cc1cc(C)c2c(N=NN3CCCCC3)[nH]nc2n1`, for which the inhibition is 39.3%. The same measure, in the same setting: under `OCCN(CCO)CC(O)COc1ccc(C23CC4CC(CC(C4)C2)C3)cc1` (stereo not drawn) stands 35.6%.

In the case of `Oc1c(Cl)cc(Cl)cc1Sc1cc(Cl)cc(Cl)c1O`, the inhibition amounted to 40.3%. Turning to `Cc1cc(C)c2c(N=NN(C)C)[nH]nc2n1`, the inhibition was determined as 35.6%.

The experiment is the same for the next values; noted with them: Saccharomyces cerevisiae growth inhibition, permissive control; measured here: maximum growth inhibition; at 50 µM; stronger effect = higher value.
Take `CC(C)(C)c1ccc(C(=O)NC(=S)NNC(=O)c2cccs2)cc1`: the inhibition came out at 53.8%.

Consider `c1cn2cc(-c3ccc4c(c3)OCO4)nc2s1`, for which the inhibition amounted to 27.3%.

Turning to `CCOC(=O)c1c(NC(=O)C(C)Sc2cccc[n+]2[O-])sc2c1CCN(Cc1ccccc1)C2` (stereo not drawn), the inhibition came out at 98.6%. The same measure, in the same setting: under `Cc1ccc(NC(=O)ON=C2CCCC2)cc1` stands 99.4%; under `c1ccc2nc3ccccc3nc2c1`, 55.6%; under `N/C(Cc1ccc(Cl)cc1)=N\OC(=O)c1cccc2ccccc12`, 99.6%. On the same count and under the same terms, the figure for `Cc1cccc(OCCN2CSC(=S)N(C)C2)c1` is 87.3%. Still for that read-out and setting: the figure for `CN1CSC(=S)N(C)C1` is 97%; for `CC1(CCc2ccccc2)NC(=S)N(c2ccccc2)N1` (stereo not drawn) it is 99.8%.

As to `CCC(=O)c1c(O)n(C2CCCCCC2)c(=O)[nH]c1=O`, the inhibition came out at 91%. On the same count and under the same terms, under `Cc1cc(OCc2ccc(C(=O)NN=C3CCCC3)cc2)ccc1Cl` stands 54.2%; under `O=[N+]([O-])c1ccc(N=Nc2ccc(O)cc2O)cc1`, 36.3%. Still for that read-out and setting: the figure for `O=c1cccc2n1Cc1cc3ccccc3nc1-2` is 32.4%; for `c1ccc(-c2ccc(-c3ccccn3)nn2)nc1` it is 36.1%; for `CCc1ccc2c(c1)C1(NN=C(c3cccc4ccccc34)S1)C(=O)N2` (stereo not drawn) it is 32.3%. Still for that read-out and setting: the figure for `Cc1ccc(O)c(C(=O)CC(=O)c2cccc(F)c2)c1` is 44.8%; for `O=C(CCCSc1ccccc1)Nc1nc(-c2ccccn2)cs1` it is 39%. Consider `CCCCn1c(=O)c(C(=O)NCc2ccncc2)c(O)c2ccccc21`, for which the inhibition stood at 41.3%. Regarding `C=CCSC(=C(C#N)C#N)c1cc2c([nH]1)CCCC2`, the inhibition turned out to be 32.9%. Still for that read-out and setting: the figure for `Cc1ccc2nc(-c3ccc(NS(=O)(=O)c4ccc(F)cc4)cc3)sc2c1` is 42.9%; for `O=[N+]([O-])c1ccc(C2Oc3ccccc3C3CC(c4ccccc4)=NN32)s1` (stereo not drawn) it is 45%; for `O=C(O)c1cc2c(ccc3ccccc32)oc1=O` it is 38.3%.

`O=S(=O)(Nc1ccc(-c2nc3ccccc3o2)cc1)c1ccccc1`: the inhibition was determined as 30.1%. On the same count and under the same terms, the figure for `O=C(OCn1ncc(Cl)c(Cl)c1=O)c1ccccc1Cl` is 54.5%; for `CCOc1ccc(NCc2nc3ccccc3n2CCOc2ccccc2)cc1` it is 30.3%. For `CCOC(=O)c1cnc(-n2nc(C)cc2C)nc1NNc1cc(C)nc(-c2ccccc2)n1`, the inhibition came to 48.1%.

Regarding `Cc1ccc(N2CCOCC2)c2c1C(=O)c1ccccc1C2=O`, the inhibition turned out to be 32.3%. Same read-out and setting: under `O=C(CN1CCN(c2ncc(C(F)(F)F)cc2Cl)CC1)NCCNc1ncc(C(F)(F)F)cc1Cl` stands 38.3%; under `CCOc1cc(CNCCO)cc(Br)c1OCc1ccc(Cl)cc1Cl`, 46.1%. Consider `Clc1ccc2nnnc(-c3ccccc3)c2c1`, for which the inhibition was found to be 37.5%. On the same count and under the same terms, the figure for `O=c1c2ccccc2nc2sc3ccccc3n12` is 38.4%; for `CCCCCC1CCC(C(=O)O)CC1` (stereo not drawn) it is 51.8%; for `O=Nc1c2nc3ccccc3n(O)c-2c2ccccc12` it is 37.8%. On the same count and under the same terms, under `COc1cc(/C=C2/C(=O)ON=C2c2ccccc2)ccc1O` stands 45.6%; under `O=C1CN(CC(=O)N2CCCCC2)c2ccccc2O1`, 37.7%; under `O=c1c2cccc3c2c(nn1CN1CCOCC1)-c1ccccc1-3`, 47.5%. As to `Cc1ccc(N=Nc2ccc(O)c3ncccc23)cc1`, the inhibition is 30.3%. Still for that read-out and setting: under `Oc1ccccc1NCC(O)Cn1ccc2ccccc21` (stereo not drawn) stands 30.2%; under `CC(C)N=c1scc(-c2ccco2)n1/N=C/c1ccc(O)c(O)c1`, 36.7%. Same read-out and setting: under `CC(=O)c1c(C)oc2c1C(=O)c1ccccc1C2=O` stands 39.7%; under `Cn1c(=O)c2nc(-c3ccccc3)oc2c2ccccc21`, 38.2%.

In the case of `OCc1ccc(O)c2ncccc12`, the inhibition came to 33.1%.

For `Cc1nn(-c2ccccc2)c2sc(-c3n[nH]c(=S)o3)cc12`, the inhibition is 36.1%. The same measure, in the same setting: under `Cc1ccc(C(=O)/C=C/c2cn(CN3CCN(C)CC3)c3ccccc23)cc1` stands 34.5%; under `Cc1cccc(OCCCOc2cccc3cccnc23)c1C`, 33.1%. Still for that read-out and setting: the figure for `CCOc1ccc(/C=C/[N+](=O)[O-])c2ccccc12` is 33.5%.

With `O=C(O)Cc1cc(I)c(Oc2ccc(O)c(I)c2)c(I)c1`, the inhibition is 38.6%. Same read-out and setting: under `COc1ccc2[nH]c3c(Cl)ncnc3c2c1` stands 35.5%; under `Cc1nn(-c2ccccc2)c2sc(C(=O)O)cc12`, 41.3%. The same measure, in the same setting: under `CC1CCc2c(sc3nc(CN4CCOCC4)nc(Sc4ccccc4)c23)C1` (stereo not drawn) stands 33.9%; under `c1cc2c(cc1C1CCCCC1)c1c3n2CCCNC3CCC1` (stereo not drawn), 38.7%; under `CCCCc1ccc(NS(=O)(=O)c2cccs2)cc1`, 34.1%. As for `Cc1cc2sc(C(=O)O)c(C)c2s1`, the inhibition came out at 57.7%. On the same count and under the same terms, the figure for `CCCOC(=O)c1ccc(Oc2cn[nH]c2-c2ccc(OC)cc2O)cc1` is 32.4%; for `Cc1cccc(Cn2ncc(Cl)c(Cl)c2=O)c1` it is 31.1%.

For the compound `COc1cccc(/C=N/N2C(=O)CSC2=S)c1O`, the inhibition turned out to be 34.1%. The same measure, in the same setting: the figure for `O=C(N/N=C1\CC2CC=CC12)c1ccc(COc2ccccc2)cc1` (stereo not drawn) is 35.1%; for `COC(=O)c1ccc2c(c1O)C(=O)c1ccccc1C2=O` it is 57.6%; for `O=C(NC(Nc1nc2ccc([N+](=O)[O-])cc2s1)(C(F)(F)F)C(F)(F)F)c1ccccc1` it is 34.1%. For `COc1ccc(NCc2ccc([N+](=O)[O-])s2)c(OC)c1`, the inhibition came out at 43.9%.

`CN1CCN(Cc2cc(COCc3ccccc3)c3cccnc3c2O)CC1`: the inhibition was determined as 51.7%.

With `Cc1cc(N2CCN(C(=O)c3ccco3)CC2)n2ncc(-c3ccccc3)c2n1`, the inhibition is 51.7%.

Consider `NNC(=O)c1cccc(COc2ccc(Br)cc2)c1`, for which the inhibition was found to be 54.5%. On the same count and under the same terms, the figure for `Cc1cc2c(cc(C(=O)O)n2C)s1` is 34.3%.

Another experiment has as its system Saccharomyces cerevisiae growth inhibition, permissive control. Described as above.
Details: not given
`CC(C)(C)c1ccc(C(=O)NC(=S)NNC(=O)c2cccs2)cc1`: the IC50 was 41.7 µM. Same read-out and setting: the figure for `CCSc1nc2ccccc2n1S(=O)(=O)c1ccccc1` is > 100 µM (inactive). Same read-out and setting: under `c1cn2cc(-c3ccc4c(c3)OCO4)nc2s1` stands > 100 µM (inactive); under `O=C(COc1ccccc1)N1CCN=C1SCc1cccnc1`, > 100 µM (inactive); under `CC(C)Sc1nc(N)nc(-c2cccs2)c1C#N`, > 100 µM (inactive). Still for that read-out and setting: under `CCOC(=O)c1c(NC(=O)C(C)Sc2cccc[n+]2[O-])sc2c1CCN(Cc1ccccc1)C2` (stereo not drawn) stands 16.3 µM; under `Cc1ccc(NC(=O)ON=C2CCCC2)cc1`, 15.2 µM. As for `Cc1cc([N+](=O)[O-])ccc1-c1ccc(C2Nc3ccccc3C(=O)N2O)o1` (stereo not drawn), the IC50 was > 100 µM (inactive). The same measure, in the same setting: under `CCCn1c(C(C)NC(C)=O)nc2ccccc21` (stereo not drawn) stands > 100 µM (inactive); under `c1ccc2nc3ccccc3nc2c1`, 44.8 µM. The same measure, in the same setting: under `N/C(Cc1ccc(Cl)cc1)=N\OC(=O)c1cccc2ccccc12` stands 44.3 µM; under `CCCCSc1nc(C)c(C(C)=O)cc1C#N`, > 100 µM (inactive); under `Cc1cccc(OCCN2CSC(=S)N(C)C2)c1`, 10.6 µM. Still for that read-out and setting: under `CN1CSC(=S)N(C)C1` stands 12.6 µM; under `Cc1ccc(/C=C/C(=O)c2ccccc(=O)c2O)c(C)c1`, 6.08 µM; under `CC1(CCc2ccccc2)NC(=S)N(c2ccccc2)N1` (stereo not drawn), 9.11 µM.

On to `CCC(=O)c1c(O)n(C2CCCCCC2)c(=O)[nH]c1=O`, for which the IC50 was 29 µM. The same measure, in the same setting: the figure for `CCN1/C(=C/C=C/C=C/c2sc3ccccc3[n+]2CC)Sc2ccccc21` is 11.3 µM.
